Reference: PubChem BioAssay AID1259407 (Chemical Carcinogenesis Research Information System (CCRIS), 2018)
Calls of active or inactive are those of the source. The rule behind the calls is not given here.

System: CCRIS mutagenicity, Ames/micronucleus/aberration tests
Test: CCRIS mutagenicity studies
[1] = Test System: AMES SALMONELLA TYPHIMURIUM, Strain/Indicator: TA100, Metabolic Activation: NONE, Method: STANDARD PLATE
[2] = Test System: AMES SALMONELLA TYPHIMURIUM, Strain/Indicator: TA98, Metabolic Activation: NONE, Method: STANDARD PLATE
[3] = Test System: AMES SALMONELLA TYPHIMURIUM, Strain/Indicator: TA100, Metabolic Activation: RAT, LIVER, S-9, Method: STANDARD PLATE
[4] = Test System: AMES SALMONELLA TYPHIMURIUM, Strain/Indicator: TA98, Metabolic Activation: NONE, Method: PREINCUBATION
[5] = Test System: AMES SALMONELLA TYPHIMURIUM, Strain/Indicator: TA100, Metabolic Activation: NONE, Method: PREINCUBATION
[6] = Test System: AMES SALMONELLA TYPHIMURIUM, Strain/Indicator: TA1535, Metabolic Activation: NONE, Method: STANDARD PLATE

## O=C1CC(O)C(O)c2ccc3c4c(ccc3c21)CCC4 (centres undefined)
Test System: AMES SALMONELLA TYPHIMURIUM, Strain/Indicator: TA100, Metabolic Activation: RAT, LIVER, MICROSOMES, 15,16-DIHYDROCYCLOPENTA[A]PHENANTHREN-17-ONE, Method: STANDARD PLATE
  mutagenic call: inactive; negative
Test System: AMES SALMONELLA TYPHIMURIUM, Strain/Indicator: TA100, Metabolic Activation: RAT, LIVER, MICROSOMES, AROCLOR 1254, Method: STANDARD PLATE
  mutagenic call: active; positive
Test System: AMES SALMONELLA TYPHIMURIUM, Strain/Indicator: TA100, Metabolic Activation: RAT, LIVER, MICROSOMES, BENZO[A]PYRENE, Method: STANDARD PLATE
  mutagenic call: active; positive
Test System: AMES SALMONELLA TYPHIMURIUM, Strain/Indicator: TA100, Metabolic Activation: RAT, LIVER, MICROSOMES, CLOFIBRATE, Method: STANDARD PLATE
  mutagenic call: inactive; negative
Test System: AMES SALMONELLA TYPHIMURIUM, Strain/Indicator: TA100, Metabolic Activation: RAT, LIVER, MICROSOMES, DEXAMETHASONE, Method: STANDARD PLATE
  mutagenic call: inactive; negative
Test System: AMES SALMONELLA TYPHIMURIUM, Strain/Indicator: TA100, Metabolic Activation: RAT, LIVER, MICROSOMES, ISONIAZID, Method: STANDARD PLATE
  mutagenic call: inactive; negative
Test System: AMES SALMONELLA TYPHIMURIUM, Strain/Indicator: TA100, Metabolic Activation: RAT, LIVER, MICROSOMES, PHENOBARBITONE, Method: STANDARD PLATE
  mutagenic call: inactive; negative

## CC(C)C(=O)Nc1snc2ccccc12
[1]
  mutagenic call: inactive; negative
Test System: AMES SALMONELLA TYPHIMURIUM, Strain/Indicator: TA100, Metabolic Activation: S-9, Method: STANDARD PLATE
  mutagenic call: inactive; negative
Test System: AMES SALMONELLA TYPHIMURIUM, Strain/Indicator: TA1537, Metabolic Activation: NONE, Method: STANDARD PLATE
  mutagenic call: inactive; negative
Test System: AMES SALMONELLA TYPHIMURIUM, Strain/Indicator: TA1537, Metabolic Activation: S-9, Method: STANDARD PLATE
  mutagenic call: inactive; negative

## O=C1NC(=O)C(Cl)(Cl)C1=C(Cl)Cl
[1]
  mutagenic call: active; positive

## CC(=O)NO
[2]
  mutagenic call: active; positive
Test System: AMES SALMONELLA TYPHIMURIUM, Strain/Indicator: TA98, Metabolic Activation: RAT, LIVER, S-9, Method: STANDARD PLATE
  mutagenic call: active; positive
[3]
  mutagenic call: inactive; negative

## CC1=C(C(=O)OCCN(Cc2ccccc2)c2ccccc2)C(c2cccc([N+](=O)[O-])c2)C(P2(=O)OCC(C)(C)CO2)=C(C)N1 (centres undefined)
Test System: AMES SALMONELLA TYPHIMURIUM, Strain/Indicator: TA98, Metabolic Activation: NONE
  mutagenic call: inactive; negative
Test System: AMES SALMONELLA TYPHIMURIUM, Strain/Indicator: TA98, Metabolic Activation: RAT, LIVER, S-9, PHENOBARBITAL AND 5,6-BENZOFLAVONE
  mutagenic call: inactive; negative
Test System: AMES SALMONELLA TYPHIMURIUM, Strain/Indicator: TA100, Metabolic Activation: NONE
  mutagenic call: inactive; negative
Test System: AMES SALMONELLA TYPHIMURIUM, Strain/Indicator: TA100, Metabolic Activation: RAT, LIVER, S-9, PHENOBARBITAL AND 5,6-BENZOFLAVONE
  mutagenic call: inactive; negative
Test System: AMES SALMONELLA TYPHIMURIUM, Strain/Indicator: TA1535, Metabolic Activation: NONE
  mutagenic call: inactive; negative
Test System: AMES SALMONELLA TYPHIMURIUM, Strain/Indicator: TA1535, Metabolic Activation: RAT, LIVER, S-9, PHENOBARBITAL AND 5,6-BENZOFLAVONE
  mutagenic call: inactive; negative
Test System: AMES SALMONELLA TYPHIMURIUM, Strain/Indicator: TA1537, Metabolic Activation: NONE
  mutagenic call: inactive; negative
Test System: AMES SALMONELLA TYPHIMURIUM, Strain/Indicator: TA1537, Metabolic Activation: RAT, LIVER, S-9, PHENOBARBITAL AND 5,6-BENZOFLAVONE
  mutagenic call: inactive; negative
Test System: E.COLI, Strain/Indicator: WP2 UVRA, Metabolic Activation: NONE
  mutagenic call: inactive; negative

## COC(=O)C(=Cc1ccc([N+](=O)[O-])o1)[N+](=O)[O-]
[4]
  mutagenic call: active; positive

## O=C(O)/C=C(\CCl)C(Cl)Cl
[4]
  mutagenic call: inactive; negative
[5]
  mutagenic call: active; positive
Test System: AMES SALMONELLA TYPHIMURIUM, Strain/Indicator: TA104, Metabolic Activation: NONE, Method: PREINCUBATION
  mutagenic call: inactive; negative

## C=CCc1cc(OC)c2c(c1)OCO2
Test System: UDS RAT HEPATOCYTES, Strain/Indicator: THY INCORP, Metabolic Activation: NONE, Method: LIQUID SCINTILLATION COUNTING
  mutagenic call: inactive; negative

## CCc1cccc(CC)c1NC(=O)CCl
[4]
  mutagenic call: inactive; negative
Test System: AMES SALMONELLA TYPHIMURIUM, Strain/Indicator: TA98, Metabolic Activation: RAT, LIVER, MICROSOMES, PHENOBARBITAL, Method: PREINCUBATION
  mutagenic call: inactive; negative
[5]
  mutagenic call: active; positive
Test System: AMES SALMONELLA TYPHIMURIUM, Strain/Indicator: TA100, Metabolic Activation: RAT, LIVER, MICROSOMES, PHENOBARBITAL, Method: PREINCUBATION
  mutagenic call: active; positive

## CC(C)CCC[C@@H](C)[C@H]1CC[C@H]2[C@@H]3C(=O)C=C4C[C@@H](O)CC[C@]4(C)[C@H]3CC[C@]12C
Test System: AMES SALMONELLA TYPHIMURIUM, Strain/Indicator: TA97, Metabolic Activation: NONE, Method: STANDARD PLATE
  mutagenic call: inactive; negative
[2]
  mutagenic call: inactive; negative
[1]
  mutagenic call: inactive; negative
Test System: AMES SALMONELLA TYPHIMURIUM, Strain/Indicator: TA102, Metabolic Activation: NONE, Method: STANDARD PLATE
  mutagenic call: inactive; negative
[6]
  mutagenic call: inactive; negative

## COS(=O)(=O)c1ccc(C)cc1
End Point: IN VITRO MICRONUCLEUS, Test System: MOUSE LYMPHOMA L5178Y CELLS, Metabolic Activation: NONE
  mutagenic call: active; positive
End Point: IN VITRO MICRONUCLEUS, Test System: MOUSE LYMPHOMA L5178Y CELLS, Metabolic Activation: RAT, LIVER, S-9
  mutagenic call: active; positive
End Point: In vitro micronucleus, Test System: Chinese Hamster Ovary (CHO-WBL) cells, Metabolic Activation: None
  mutagenic call: active; positive (p<0.01)
[1]
  mutagenic call: active; positive
[3]
  mutagenic call: active; positive

## O[C@@H]1[C@H]2O[C@H]2c2c(ccc3cc4c(ccc5ccccc54)nc23)[C@H]1O
[4]
  mutagenic call: active; positive
[5]
  mutagenic call: active; positive
Test System: CHINESE HAMSTER V-79, Strain/Indicator: V-79/8-AZAGUANINE, Metabolic Activation: NONE
  mutagenic call: active; positive

## O=C1CCO1
[1]
  mutagenic call: active; positive
Test System: AMES SALMONELLA TYPHIMURIUM, Strain/Indicator: TA100, Metabolic Activation: RAT, LIVER, S-9, KC500 OR PHENOBARBITAL, Method: LIQUID SUSPENSION
  mutagenic call: active; positive
[6]
  mutagenic call: active; positive
Test System: CHINESE HAMSTER V-79, Strain/Indicator: V-79/6-THIOGUANINE, Metabolic Activation: NONE, Method: FLASK ASSAY
  mutagenic call: active; positive
Test System: MOUSE LYMPHOMA, Strain/Indicator: L5178Y (TK+/TK-), Metabolic Activation: NONE, Method: SUSPENSION/PLATE
  mutagenic call: active; positive
Test System: MOUSE LYMPHOMA, Strain/Indicator: L5178Y (TK+/TK-), Metabolic Activation: RAT, LIVER, S-9, AROCLOR 1254, Method: SUSPENSION/PLATE
  mutagenic call: active; positive
Test System: UDS HUMAN FIBROBLASTS, Strain/Indicator: THY INCORP (NON-S-PHASE), Metabolic Activation: NONE, Method: LIQUID SCINTILLATION COUNTING
  mutagenic call: active; positive
Test System: UDS HUMAN LYMPHOCYTES, Strain/Indicator: THY INCORP (NON-S-PHASE), Metabolic Activation: NONE, Method: LIQUID SCINTILLATION COUNTING
  mutagenic call: active; positive
Test System: UDS RODENT PRIMARY CELLS, Strain/Indicator: THY INCORP (NON-S-PHASE), Metabolic Activation: NONE, Method: AUTORADIOGRAPHY
  mutagenic call: active; positive

## CCCC(=O)OCC
Test System: AMES SALMONELLA TYPHIMURIUM, Strain/Indicator: TA97, Metabolic Activation: NONE, Method: PREINCUBATION
  mutagenic call: inactive; negative
Test System: AMES SALMONELLA TYPHIMURIUM, Strain/Indicator: TA97, Metabolic Activation: RAT, LIVER, S-9, AROCLOR 1254, Method: PREINCUBATION
  mutagenic call: inactive; negative
Test System: AMES SALMONELLA TYPHIMURIUM, Strain/Indicator: TA102, Metabolic Activation: NONE, Method: PREINCUBATION
  mutagenic call: inactive; negative
Test System: AMES SALMONELLA TYPHIMURIUM, Strain/Indicator: TA102, Metabolic Activation: RAT, LIVER, S-9, AROCLOR 1254, Method: PREINCUBATION
  mutagenic call: inactive; negative
